Legend:
[1] = tested on: normal NK cells expanded with K562-aAPC; assay: percent inhibition of viability; higher = more inhibition; conditions: 72 h, IL-2 2.5 ng/mL
Procedure: (§1)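 Drug sensitivity and resistance testing on K562-aAPC-expanded normal NK cells: 5 concentrations (10-fold steps over a 10,000-fold range), 72 h at 37 °C, viability by CellTiter-Glo normalised to DMSO and benzethonium chloride controls; DSS from the fitted curve.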

[2] = tested on: normal NK cells expanded with K562-aAPC; assay: drug sensitivity score (DSS) (DSS units); higher = more sensitive; extreme values may be limits of the assay; conditions: 72 h; IL-2 2.5 ng/mL
Procedure: as §1

DERL-7 (IL-2 2.5 ng/mL) [3] = assay: percent inhibition of viability; higher = more inhibition; conditions: 72 h
[4] = tested on: normal primary NK cells, pool 3 (3 donors) (IL-2 2.5 ng/mL); assay: as above; conditions: 72 h
NKL (IL-2 2.5 ng/mL) [5] = assay: as above; conditions: 72 h
[6] = tested on: normal primary NK cells, pool 1 (3 donors), resting (IL-2 0 ng/mL); assay: as above; conditions: 72 h
SNK-6 (IL-2 2.5 ng/mL) [7] = assay: as above; conditions: 72 h
[8] = tested on: normal primary NK cells, pool 1 (3 donors) (IL-2 2.5 ng/mL); assay: as above; conditions: 72 h
[9] = tested on: normal primary NK cells, pool 2 (3 donors) (IL-2 2.5 ng/mL); assay: as above; conditions: 72 h
KAI3 (IL-2 2.5 ng/mL) [10] = assay: as above; conditions: 72 h
NK-YS (IL-2 2.5 ng/mL) [11] = assay: as above; conditions: 72 h
IMC-1 (IL-2 20 ng/mL) [12] = assay: as above; conditions: 72 h
YT (IL-2 2.5 ng/mL) [13] = assay: as above; conditions: 72 h
NK-92 (IL-2 2.5 ng/mL) [14] = assay: as above; conditions: 72 h
KHYG-1 (IL-2 2.5 ng/mL) [15] = assay: as above; conditions: 72 h
DERL-7 (IL-2 2.5 ng/mL) [16] = assay: drug sensitivity score (DSS) (DSS units); higher = more sensitive; extreme values may be limits of the assay; conditions: 72 h
[17] = tested on: normal primary NK cells, pool 3 (3 donors) (IL-2 2.5 ng/mL); assay: as above; conditions: 72 h
NKL (IL-2 2.5 ng/mL) [18] = assay: as above; conditions: 72 h
[19] = tested on: normal primary NK cells, pool 1 (3 donors), resting (IL-2 0 ng/mL); assay: as above; conditions: 72 h
SNK-6 (IL-2 2.5 ng/mL) [20] = assay: as above; conditions: 72 h
[21] = tested on: normal primary NK cells, pool 1 (3 donors) (IL-2 2.5 ng/mL); assay: as above; conditions: 72 h
[22] = tested on: normal primary NK cells, pool 2 (3 donors) (IL-2 2.5 ng/mL); assay: as above; conditions: 72 h
KAI3 (IL-2 2.5 ng/mL) [23] = assay: as above; conditions: 72 h
NK-YS (IL-2 2.5 ng/mL) [24] = assay: as above; conditions: 72 h
IMC-1 (IL-2 20 ng/mL) [25] = assay: as above; conditions: 72 h
YT (IL-2 2.5 ng/mL) [26] = assay: as above; conditions: 72 h
NK-92 (IL-2 2.5 ng/mL) [27] = assay: as above; conditions: 72 h
KHYG-1 (IL-2 2.5 ng/mL) [28] = assay: as above; conditions: 72 h

CC(O)(CS(=O)(=O)c1ccc(F)cc1)C(=O)Nc1ccc(C#N)c(C(F)(F)F)c1 (stereo not drawn) [Bicalutamide] (max concentration tested 10000 nM)
percent inhibition of viability [%]
Conditions	1 nM	10 nM	100 nM	1000 nM	10000 nM
DERL-7 (IL-2 2.5 ng/mL) [3]	1.65	7.46	-4.98	5.71	5.22
IMC-1 (IL-2 20 ng/mL) [12]	3.29	5.96	8.36	9.75	42.3
KAI3 (IL-2 2.5 ng/mL) [10]	14.6	10.8	21.5	20.8	43.6
KHYG-1 (IL-2 2.5 ng/mL) [15]	3.99	22.1	3.98	27.4	19.9
NK-92 (IL-2 2.5 ng/mL) [14]	10.3	8.57	4.92	20.1	30.6
NK-YS (IL-2 2.5 ng/mL) [11]	9.7	4	13.7	9.96	23.5
NKL (IL-2 2.5 ng/mL) [5]	0.19	16.2	5.15	40.3	35.9
SNK-6 (IL-2 2.5 ng/mL) [7]	9.4	13.4	4.02	9.59	26.6
YT (IL-2 2.5 ng/mL) [13]	3.05	13.5	3.8	17.9	16.7
[1]	5.68	3.24	1.15	11.5	13.4
[4]	3.23	-2.54	5.11	-2.8	-0.48
[6]	2.97	-8.07	-9.37	-26.1	-10.4
[8]	-3.4	-8.36	-1.19	-15.8	6.46
[9]	-0.02	-1.32	-0.86	-0.13	7.12

Conditions	drug sensitivity score
DERL-7 (IL-2 2.5 ng/mL) [16]	0
IMC-1 (IL-2 20 ng/mL) [25]	3.5
KAI3 (IL-2 2.5 ng/mL) [23]	7.75
KHYG-1 (IL-2 2.5 ng/mL) [28]	4.48
NK-92 (IL-2 2.5 ng/mL) [27]	3.61
NK-YS (IL-2 2.5 ng/mL) [24]	2.2
NKL (IL-2 2.5 ng/mL) [18]	8.09
SNK-6 (IL-2 2.5 ng/mL) [20]	2.16
YT (IL-2 2.5 ng/mL) [26]	1.84
[2]	0.74
[17]	0
[19]	0
[21]	0
[22]	0

Cn1nnc2c(C(N)=O)ncn2c1=O [Temozolomide] (max concentration tested 100000 nM)
percent inhibition of viability [%]
Conditions	10 nM	100 nM	1000 nM	10000 nM	100000 nM
DERL-7 (IL-2 2.5 ng/mL) [3]	-3.81	2.52	-0.21	4.75	-1.49
IMC-1 (IL-2 20 ng/mL) [12]	1.34	-6.01	5.36	17.9	74.4
KAI3 (IL-2 2.5 ng/mL) [10]	-11.8	-10.3	-9.47	-11.7	12.9
KHYG-1 (IL-2 2.5 ng/mL) [15]	-3.41	-4.13	0.86	0.71	8.74
NK-92 (IL-2 2.5 ng/mL) [14]	-7.14	-7.33	-5.28	7.55	32.4
NK-YS (IL-2 2.5 ng/mL) [11]	-2.59	-6.14	2.38	3.13	22.3
NKL (IL-2 2.5 ng/mL) [5]	-9.55	-19.8	-10.2	4.85	65.2
SNK-6 (IL-2 2.5 ng/mL) [7]	-0.07	8.23	35.2	72.8	88.5
YT (IL-2 2.5 ng/mL) [13]	-4.31	-3.78	-0.54	-3.29	0.79
[1]	0.11	-2.44	4.25	0.95	10.9
[4]	-14.7	-11.8	-7.32	6.58	17.2
[6]	-13.7	-5.7	-14.4	-9.04	-7.4
[8]	-7.39	2.46	-6.83	-0.09	5.41
[9]	-14.2	-9.61	-8.15	11.5	10

Conditions	drug sensitivity score
DERL-7 (IL-2 2.5 ng/mL) [16]	0
IMC-1 (IL-2 20 ng/mL) [25]	6.93
KAI3 (IL-2 2.5 ng/mL) [23]	0.01
KHYG-1 (IL-2 2.5 ng/mL) [28]	0
NK-92 (IL-2 2.5 ng/mL) [27]	2.63
NK-YS (IL-2 2.5 ng/mL) [24]	1.21
NKL (IL-2 2.5 ng/mL) [18]	4.31
SNK-6 (IL-2 2.5 ng/mL) [20]	18
YT (IL-2 2.5 ng/mL) [26]	0
[2]	0.02
[17]	1.03
[19]	0
[21]	0
[22]	0.32

Source: the supplement of paper PMC5908809
